Source: ChEMBL document CHEMBL1148791, “High-throughput screening of drug-brain tissue binding and in silico prediction for assessment of central nervous system drug delivery” (J Med Chem, 2007)

Legend:
[1] = physchem
Description: Acid dissociation constant, pKa of the compound

[2] = physchem; conditions: buffer, pH 7.4
[3] = buffer, pH 7.4
[4] = Fraction unbound ligand in rat brain after 20 hrs; assay type: ADME, tissue-based; conditions: brain tissue
[5] = Fraction unbound ligand in rat adrenal gland after 20 hrs; assay type: ADME, tissue-based; conditions: adrenal gland tissue
[6] = Fraction unbound ligand in rat brown fat tissue after 20 hrs; assay type: ADME, tissue-based, Adipose tissue
[7] = Fraction unbound ligand in rat lung after 20 hrs; assay type: ADME, tissue-based; conditions: lung tissue

O=C1CC2(CCCC2)CC(=O)N1CCCCN1CCN(c2ncccn2)CC1 [BUSPIRONE]
pKa [1]: 7.8

NC(=O)N1c2ccccc2C=Cc2ccccc21 [CARBAMAZEPINE]
logD [2]: 1.77

CCCC(C)(COC(N)=O)COC(=O)NC(C)C (stereo unspecified) [CARISOPRODOL]
logD [2]: 2.4

CN(C)CCCN1c2ccccc2Sc2ccc(Cl)cc21 [CHLORPROMAZINE]
logD [2]: 3.7

CN1CCN(C2=Nc3cc(Cl)ccc3Nc3ccccc32)CC1 [CLOZAPINE]
logD [2]: 3.46

CN(C)CCC=C1c2ccccc2C=Cc2ccccc21 [CYCLOBENZAPRINE]
pKa [1]: 9.69
logD [2]: 2.92

COCCCC/C(=N\OCCN)c1ccc(C(F)(F)F)cc1 [FLUVOXAMINE]
pKa [1]: 9.4

O=C(CCCN1CCC(O)(c2ccc(Cl)cc2)CC1)c1ccc(F)cc1 [HALOPERIDOL]
logD [2]: 0.18

COc1ccc2c3c1O[C@H]1C(=O)CC[C@H]4[C@@H](C2)N(C)CC[C@]314 [HYDROCODONE]
pKa [1]: 8.43
logD [2]: 3.38

OCCOCCN1CCN(C(c2ccccc2)c2ccc(Cl)cc2)CC1 (stereo unspecified) [HYDROXYZINE]
pKa [1]: 7.75
Log D [3]: 0.18

COC(=O)[C@H](c1ccccc1)C1CCCCN1 (stereo partly specified) [METHYLPHENIDATE]
pKa [1]: 9.24
logD [2]: -0.15

Cc1ncc2n1-c1ccc(Cl)cc1C(c1ccccc1F)=NC2 [MIDAZOLAM]
pKa [1]: 5.44
logD [2]: 2.5

CNCCC=C1c2ccccc2CCc2ccccc21 [NORTRIPTYLINE]
pKa [1]: 10.4
logD [2]: 2.23

Fc1ccc([C@@H]2CCNC[C@H]2COc2ccc3c(c2)OCO3)cc1 [PAROXETINE]
pKa [1]: 10.1
logD [2]: 2.27

CC(C)NCC(O)COc1cccc2ccccc12 (stereo unspecified) [PROPRANOLOL]
fraction unbound at 20 h [4]: 0.021
fraction unbound at 20 h [5]: 0.01
fraction unbound at 20 h [6]: 0.097
fraction unbound at 20 h [7]: 0.053

Cc1nc2n(c(=O)c1CCN1CCC(c3noc4cc(F)ccc34)CC1)CCCC2 [RISPERIDONE]
logD [2]: 1.66

O=c1n(CCCN2CCN(c3cccc(Cl)c3)CC2)nc2ccccn12 [TRAZODONE]
pKa [1]: 6.73
logD [2]: 2.97

COc1ccc(C(CN(C)C)C2(O)CCCCC2)cc1 (stereo unspecified) [VENLAFAXINE]
logD [2]: 0.88

Cc1ccc(-c2nc3ccc(C)cn3c2CC(=O)N(C)C)cc1 [ZOLPIDEM]
pKa [1]: 6.02
logD [2]: 2.35
